Source: US10407408B2, “Imide derivatives and use thereof as medicine” (MITSUBISHI TANABE PHARMA CORPORATION, priority 2015, dated 2019)
Structures can show the parent of a compound that is named as a salt.

Tested on: proMMP-9 production by human TNFα stimulated THP-1 cell
Experiment: Action on proMMP-9 production by human TNFα stimulated THP-1 cell (ELISA of culture supernatant)
Assay type: cell-based
Settings: THP-1 cells, human TNFα 10 ng/mL, 24 hr; IC50 from 3 concentrations (5, 50, 500 or 1, 10, 100 nmol/L); read-out: proMMP-9 suppression rate IC50
Protocol: Experimental Example 1: Action of Human TNFα Stimulated THP-1 Cell on proMMP-9 Production
THP-1 cell (human monocytic leukemia cell line) was adjusted to 1×10^7 cells/mL in a culture medium (10% fetal bovine serum/RPMI1640 medium), and dispensed to a 96 well multiplate. This was equilibrated under the conditions of 37° C./5% CO2, and a culture medium containing human TNFα (final concentration 10 ng/mL) and a test compound was dissolved therein. After incubation under the conditions of 37° C./5% CO2 for 24 hr, the culture medium was centrifuged and the culture supernatant was collected, which was subjected to the following measurement.
Quantification of proMMP-9 in Culture Supernatant
The proMMP-9 concentration of the collected culture supernatant was quantified using a commercially available measurement reagent (manufactured by GE Healthcare, MMP-9, Human, Biotrak ELISA System).
Calculation of proMMP-9 Suppression Rate
The proMMP-9 suppression rate of the test compound was calculated from the following formula: % suppression=100−((Test−Min)/(Max−Min)×100) wherein Max is proMMP-9 concentration of culture supernatant induced by stimulation with human TNFα, without addition of a test compound (added with solvent alone) Min is proMMP-9 concentration of culture supernatant without addition of a test compound (added with solvent alone) and without stimulation with human TNFα, and Test is proMMP-9 concentration of culture supernatant induced by stimulation with human TNFα when a test compound is added.
Furthermore, the concentration of the test compound necessary for suppressing proMMP-9 production by human TNFα stimulated THP-1 cell by 50% (IC50 value) was calculated from 3 points of proMMP-9 suppression rate at test compound concentrations of 5, 50 and 500 nmol/L or 1, 10 and 100 nmol/L.
MMP-9 is produced as a precursor proMMP-9 by the stimulated cells, extracellularly activated and expresses the physiological activity as MMP-9. That is, evaluation of the suppression of proMMP-9 produced by the cell means evaluation of the suppression of production of MMP-9. The same applies to MMP-2, and evaluation of the suppression of proMMP-2 produced by the cell means evaluation of the suppression of production of MMP-2.

SMILES | IC50 [µM]
COC(=O)[C@@H]1CN(c2ncc(C)cc2C)CCN1C(=O)c1ccc([C@@]2(C(C)C)NC(=O)NC2=O)cc1 [Example 64, (S)-4-(3,5-dimethylpyridin-2-yl)-1-[4-((R)-4-isopropyl-2,5-dioxoimidazolidin-4-yl)benzoyl]piperazine-2-carboxylic acid methyl ester] | 0.064
Cc1cnc(N2CCN(C(=O)c3ccc(C4(C(C)C)NC(=O)NC4=O)s3)CC2)c(C)c1 (stereo not drawn) [Example 114, 5-{5-[4-(3,5-dimethylpyridin-2-yl)piperazine-1-carbonyl]thiophen-2-yl}-5-isopropylimidazolidine-2,4-dione] | 0.082
Cc1nnc(N2CCN(C(=O)c3ccc([C@@]4(C(C)C)NC(=O)NC4=O)cc3)CC2)c(C)c1C [Example 141, (R)-5-isopropyl-5-{4-[4-(4,5,6-trimethylpyridazin-3-yl)piperazine-1-carbonyl]phenyl}imidazolidine-2,4-dione] | 0.07
Cc1ccc(C(=O)C2CCN(C(=O)c3ccc([C@@]4(C)NC(=O)NC4=O)cc3)CC2)cc1 [Example 150, (R)-5-methyl-5-{4-[4-(4-methylbenzoyl)piperidine-1-carbonyl]phenyl}imidazolidine-2,4-dione] | 0.025
Cc1cnc2c(c1)CCN2[C@H]1CCN(C(=O)c2ccc([C@@]3(C(C)C)NC(=O)NC3=O)cc2)C1 [Example 158, (R)-5-isopropyl-5-{4-[(S)-3-(5-methyl-2,3-dihydropyrrolo[2,3-b]pyridin-1-yl)pyrrolidine-1-carbonyl]phenyl}imidazolidine-2,4-dione] | 0.049
CCC1(c2ccc(C(=O)N3CCC(c4cc(-c5ccc(C)cc5)[nH]n4)CC3)cn2)CC(=O)NC1=O (stereo not drawn) [Example 165, 3-ethyl-3-{5-[4-(5-p-tolyl-1H-pyrazol-3-yl)piperidine-1-carbonyl}pyridin-2-yl}pyrrolidine-2,5-dione] | 0.09
CC[C@]1(c2ccc(C(=O)N3CCC(c4nnn(-c5ccc(C)cc5)n4)CC3)cc2)NC(=O)NC1=O [Example 170, (R)-5-ethyl-5-{4-[4-(2-p-tolyl-2H-tetrazol-5-yl)piperidine-1-carbonyl]phenyl}imidazolidine-2,4-dione] | 0.06
CC[C@]1(c2ccc(C(=O)N3CCC(c4cn(-c5ccc(C)cc5)cn4)CC3)cc2)NC(=O)NC1=O [Example 175, (R)-5-ethyl-5-{4-[4-(1-p-tolyl-1H-imidazol-4-yl)piperidine-1-carbonyl]phenyl}imidazolidine-2,4-dione] | 0.088
CCC1(c2ccc(C(=O)N3CCC(c4cn(-c5ccc(C)cc5)nn4)CC3)cc2F)NC(=O)NC1=O (stereo not drawn) [Example 178, 5-ethyl-5-{2-fluoro-4-[4-(1-p-tolyl-1H-[1,2,3]triazol-4-yl)piperidine-1-carbonyl]phenyl}imidazolidine-2,4-dione] | 0.034
Cc1cnc(N2CCN(C(=O)c3ccc(C4(C(C)C)C(=O)NC(=O)N4C)cc3)CC2)c(C)c1 (stereo not drawn) [Example 182, 5-{4-[4-(3,5-dimethylpyridin-2-yl)piperazine-1-carbonyl]phenyl}-5-isopropyl-1-methylimidazolidine-2,4-dione] | 0.067
Cc1cnc(NC2CN(C(=O)c3ccc([C@@]4(C(C)C)NC(=O)NC4=O)cc3)C2)c(C)c1 [Example 185, (R)-5-{4-[3-(3,5-dimethylpyridin-2-ylamino)azetidine-1-carbonyl]phenyl}-5-isopropylimidazolidine-2,4-dione.hydrochloride] | 0.082

These reach a lower IC50. Values come first.

IC50 [µM] | SMILES
0.006 | Cc1cnc(N2CCN(C(=O)c3ccc(C4(C(C)C)NC(=O)NC4=O)c(O)c3)CC2)c(C)c1 (stereo not drawn) [Example 20, 5-{4-[4-(3,5-dimethylpyridin-2-yl)piperazine-1-carbonyl]-2-hydroxyphenyl}-5-isopropylimidazolidine-2,4-dione]
0.016 | CC[C@]1(c2ccc(C(=O)N3CCC(c4cnn(-c5ccc(C)cc5)c4)CC3)cc2)NC(=O)NC1=O [Example 27, (R)-5-ethyl-5-{4-[4-(1-p-tolyl-1H-pyrazol-4-yl)piperidine-1-carbonyl]phenyl}imidazolidine-2,4-dione]
0.009 | Cc1cnc(N2CCN(C(=O)c3ccc([C@@]4(C(C)C)NC(=O)NC4=O)cc3)C3(CCC3)C2)c(C)c1 [Example 65, (R)-5-{4-[8-(3,5-dimethylpyridin-2-yl)-5,8-diazaspiro[3.5]nonane-5-carbonyl]phenyl}-5-isopropylimidazolidine-2,4-dione]
< 0.005 | COCC1CN(C(=O)c2ccc([C@@]3(C(C)C)NC(=O)NC3=O)cc2)CCN1c1ncc(C)cc1C (stereo partly drawn) [Example 66, (R)-5-{4-[4-(3,5-dimethylpyridin-2-yl)-3-methoxymethylpiperazine-1-carbonyl]phenyl}-5-isopropylimidazolidine-2,4-dione]
0.011 | Cc1cnc(N2CCN(C(=O)c3ccc(C4(CF)NC(=O)NC4=O)cc3)C(C)(C)C2)c(C)c1 (stereo not drawn) [Example 69, 5-{4-[4-(3,5-dimethylpyridin-2-yl)-2,2-dimethylpiperazine-1-carbonyl]phenyl}-5-fluoromethylimidazolidine-2,4-dione]
0.011 | Cc1cc(C)c(N2CCN(C(=O)c3ccc(C4(c5ccccc5)NC(=O)NC4=O)cc3)CC2)nc1C (stereo not drawn) [Example 108, 5-phenyl-5-{4-[4-(3,5,6-trimethylpyridin-2-yl)piperazine-1-carbonyl]phenyl}imidazolidine-2,4-dione]
0.011 | COC1(C2(c3ccc(C(=O)N4CCN(c5ncc(C)cc5C)CC4)cc3)NC(=O)NC2=O)CC1 (stereo not drawn) [Example 112, 5-{4-[4-(3,5-dimethylpyridin-2-yl)piperazine-1-carbonyl]phenyl}-5-(1-methoxycyclopropyl) imidazolidine-2,4-dione]
0.001 | CC[C@]1(c2ccc(C(=O)N3CCN(c4ncc(C)cc4C)CC3)cc2)NC(=O)NC1=O [Example 124, (R)-5-{4-[4-(3,5-dimethylpyridin-2-yl)piperazine-1-carbonyl]phenyl}-5-ethylimidazolidine-2,4-dione]
0.008 | Cc1cc(C2(C)NC(=O)NC2=O)ccc1C(=O)N1CCN(c2nc(C)c(C)cc2C)CC1 (stereo not drawn) [Example 126, 5-methyl-5-{3-methyl-4-[4-(3,5,6-trimethylpyridin-2-yl)piperazine-1-carbonyl]phenyl}imidazolidine-2,4-dione]
0.014 | Cc1cnc(N2CCN(C(=O)c3ccc(C4(C(C)(C)C)NC(=O)NC4=O)cc3)CC2)c(C)n1 (stereo not drawn) [Example 137, 5-tert-butyl-5-[4-(3′,5′-dimethyl-2,3,5,6-tetrahydro[1,2′]bipyrazinyl-4-carbonyl)phenyl]imidazolidine-2,4-dione]
0.014 | Cc1ccc(OC2CCN(C(=O)c3ccc([C@@]4(C)NC(=O)NC4=O)cc3)CC2)cc1 [Example 152, (R)-5-methyl-5-[4-(4-p-tolyloxypiperidine-1-carbonyl]phenyl}imidazolidine-2,4-dione]
0.019 | Cc1cnc(N[C@@H]2CN(C(=O)c3ccc([C@@]4(C(C)C)NC(=O)NC4=O)cc3)C[C@H]2O)c(C)c1 [Example 187, (R)-5-{4-[(3R,4R)-3-(3,5-dimethylpyridin-2-ylamino)-4-hydroxypyrrolidine-1-carbonyl]phenyl}-5-isopropylimidazolidine-2,4-dione]
0.002 | Cc1cnc(N[C@H]2C[C@@H](C#N)N(C(=O)c3ccc([C@@]4(C(C)C)NC(=O)NC4=O)cc3)C2)c(C)c1 [Example 198, (2S,4S)-4-(3,5-dimethylpyridin-2-ylamino)-1-[4-((R)-4-isopropyl-2,5-dioxoimidazolidin-4-yl)benzoyl]pyrrolidine-2-carbonitrile]
